Experimental data taken from patent US20240293392A1, “INHIBITOR COMPOUNDS” (NeoPhore Limited, priority 2021, published 2024).

What was measured:
[1] = target: T1, recombinant N-terminal MLH1 (residues 15-340) (Homo sapiens, UniProt P40692); test: Fluorescence Polarisation Assay for MLH1; format: binding; conditions: fluorescence polarisation probe displacement; 100 nM N-terminal MLH1, 5 nM probe compound
T1 construct: recombinant N-terminal MLH1 (residues 15-340)
T1 sequence (P40692 15-340): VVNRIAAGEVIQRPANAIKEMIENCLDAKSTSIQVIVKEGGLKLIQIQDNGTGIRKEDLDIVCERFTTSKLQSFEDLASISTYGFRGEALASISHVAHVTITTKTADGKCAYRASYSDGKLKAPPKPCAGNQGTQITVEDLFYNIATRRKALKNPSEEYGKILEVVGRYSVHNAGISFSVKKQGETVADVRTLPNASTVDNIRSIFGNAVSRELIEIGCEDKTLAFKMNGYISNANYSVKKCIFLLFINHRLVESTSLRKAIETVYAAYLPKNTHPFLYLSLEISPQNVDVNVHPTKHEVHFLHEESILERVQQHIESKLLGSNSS
Experimental: Fluorescence Polarisation Assay for MLH1
Test compounds, as 10 mM DMSO stocks, were dispensed into a 384-well Low Flange Black Flat Bottom Polystyrene Non-binding Surface plate (Corning®, item number 3575) using a Labcyte Echo acoustic liquid handler. Test compounds were added to wells in columns 1-22 whilst DMSO was added to wells in columns 23 and 24 in order to normalise the plate. 20 μL of a 2× solution (200 nM) of recombinant N-terminal MLH1 (residues 15-340) in assay buffer (25 mM HEPES, pH 7.5, 250 mM NaCl, 10 mM MgCl2, 0.01% Triton X-100, 5 mM dithiothreitol) was added to all wells in columns 1-23 and 20 μL assay buffer was added to all wells in column 24 using an E1-ClipTip pipette (ThermoFisher). Plates were centrifuged for 1 minute at 250×g and were incubated at room temperature for 30 minutes prior to the addition of 20 μL of 2× (10 nM) 5-((5-(4-((2-(2,4-dihydroxy-5-isopropylbenzoyl)isoindolin-5-yl)methyl)piperazin-1-yl)pentyl)carbamoyl)-2-(6-(dimethylamino)-3-(dimethyliminio)-3H-xanthen-9-yl)benzoate in assay buffer (prepared from a 1 mM DMSO stock) with an E1-ClipTip pipette (ThermoFisher). The final concentration of N-terminal MLH1 was 100 nM and the final concentration of the probe compound was 5 nM. Compound plates were centrifuged for 1 minute at 250×g for 1 minute and immediately read on a PheraStar FSX (fitted with 384-well aperture spoon and 590 675 675 FP optic module). The gain and focus were adjusted before each plate was read so that the polarisation of a no enzyme control (column 24) was equal to 35 mP. Data were normalised against the no inhibitor controls (column 23) and no enzyme controls (column 24).

[2] = target: T2, recombinant N-terminal PMS2 (residues 1-365) (Homo sapiens, UniProt P54278); test: Fluorescence Polarisation Assay for PMS2; format: binding; conditions: fluorescence polarisation probe displacement; 10 nM N-terminal PMS2, 5 nM probe compound; read-out: PMS2 IC50
T2 construct: recombinant N-terminal PMS2 (residues 1-365)
T2 sequence (P54278 1-365): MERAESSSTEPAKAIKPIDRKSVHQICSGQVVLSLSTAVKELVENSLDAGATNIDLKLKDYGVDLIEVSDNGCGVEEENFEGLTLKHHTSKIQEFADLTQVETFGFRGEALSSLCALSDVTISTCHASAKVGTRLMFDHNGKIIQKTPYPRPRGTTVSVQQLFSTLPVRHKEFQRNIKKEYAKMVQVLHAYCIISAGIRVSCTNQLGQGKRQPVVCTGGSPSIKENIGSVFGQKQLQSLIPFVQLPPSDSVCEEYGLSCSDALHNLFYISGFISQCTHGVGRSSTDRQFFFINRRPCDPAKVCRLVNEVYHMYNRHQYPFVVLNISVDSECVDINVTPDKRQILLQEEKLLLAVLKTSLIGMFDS
Experimental: Fluorescence Polarisation Assay for PMS2
For single point screening, test compounds were added to wells in columns 1-22 whilst DMSO was added to wells in columns 23 and 24 in order to normalise the plate. For potency determination, serial dilutions of test compounds were added to wells in columns 3-22 and DMSO volume was normalised across the plate.
20 μL assay buffer was added to all wells in columns 1 and 24 (column 24 only for single point screening) using a MultiDrop Combi (ThermoFisher). Plates were centrifuged for 1 minute at 250×g and were incubated at room temperature for 30 minutes prior to the addition of 20 μL of 2× (20 nM) of 5-((5-(4-((2-(2,4-dihydroxy-5-isopropylbenzoyl)isoindolin-5-yl)methyl)piperazin-1-yl)pentyl)carbamoyl)-2-(6-(dimethylamino)-3-(dimethyliminio)-3H-xanthen-9-yl)benzoate (referred to hereinafter as “probe compound”) in assay buffer (prepared from a 100 μM DMSO stock) with a MultiDrop Combi (ThermoFisher). The final concentration of N-terminal PMS2 was 10 nM and the final concentration of probe compound was 5 nM.
Compound plates were centrifuged for 1 minute at 250×g for 1 minute and were incubated at room temperature for 1 hour before being read on a PheraStar FSX (fitted with 384-well aperture spoon and 540 590 590 FP optic module). The gain and focus were adjusted before each plate was read so that the polarisation of a no enzyme control (column 24) was equal to 35 mP. Data were normalised against the no inhibitor controls (column 23) and no enzyme controls (column 24).

Compound	IC50 [1]	IC50 [2]
O=C(c1c(O)cc(O)cc1OCc1cccnn1)N1Cc2cccc(NC3CCOC3)c2C1 (stereo not drawn) [Example 99, (2,4-Dihydroxy-6-(pyridazin-3-ylmethoxy)phenyl)(4-((tetrahydrofuran-3-yl)amino)isoindolin-2-yl)methanone]	1 to 10 µM	> 10 µM
CNCc1cccc2c1CN(C(=O)c1c(O)cc(O)cc1OCc1ccccc1)C2 [Example 79, (2-(Benzyloxy)-4,6-dihydroxyphenyl) (4-((methylamino)methyl)isoindolin-2-yl) methanone]	1 to 10 µM	1 to 10 µM
Cn1cc(Nc2cccc3c2CN(C(=O)c2c(O)cc(O)cc2OCc2ccccc2)C3)cn1 [Example 21, (2-(Benzyloxy)-4,6-dihydroxyphenyl)(4-((1-methyl-1H-pyrazol-4-yl)amino)isoindolin-2-yl)methanone]	1 to 10 µM	1 to 10 µM
CN(C)Cc1ccc2c(c1)CN(C(=O)c1c(O)cc(O)cc1OCc1ccccc1)C2 [Example 11, (2-(Benzyloxy)-4,6-dihydroxyphenyl)(5-((dimethylamino)methyl)isoindolin-2-yl)methanone]	1 to 10 µM	1 to 10 µM
Cn1cc(Nc2cccc3c2CN(C(=O)c2c(O)cc(O)cc2OCc2ccccc2)CC3)ccc1=O [Example 135, 5-((2-(2-(Benzyloxy)-4,6-dihydroxybenzoyl)-1,2,3,4-tetrahydroisoquinolin-8-yl)amino)-1-methylpyridin-2(1H)-one]	< 1 µM	1 to 10 µM
CC(=O)NCc1cccc2c1CN(C(=O)c1c(O)cc(O)cc1OCc1ccccc1)C2 [Example 95, N-((2-(2-(Benzyloxy)-4,6-dihydroxybenzoyl)isoindolin-4-yl)methyl)acetamide]	1 to 10 µM	1 to 10 µM
COCCOc1cc2c(c(N[C@@H]3CCOC3)c1)CN(C(=O)c1c(O)cc(O)cc1OCC1CC1)CC2 [Example 141, (R)-(2-(Cyclopropylmethoxy)-4,6-dihydroxyphenyl)(6-(2-methoxyethoxy)-8-((tetrahydrofuran-3-yl)amino)-3,4-dihydroisoquinolin-2(1H)-yl)methanone]	1 to 10 µM	> 10 µM
CN(C)Cc1ccc2c(c1)CN(C(=O)c1c(O)cc(O)cc1OCc1ccccc1)CC2 [Example 47, (2-Benzyloxy-4,6-dihydroxy-phenyl)-[7-[(dimethylamino)methyl]-3,4-dihydro-1H-isoquinolin-2-yl]methanone]	1 to 10 µM	1 to 10 µM
O=C(c1c(O)cc(O)cc1OCc1ccccc1)N1Cc2cccc(NC3CCCOC3)c2C1 (single isomer, unassigned) [Example 31, (2-(Benzyloxy)-4,6-dihydroxyphenyl)(4-((tetrahydro-2H-pyran-3-yl)amino)isoindolin-2-yl)methanone]	1 to 10 µM	> 10 µM
CN(c1cccc2c1CN(C(=O)c1c(O)cc(O)cc1OCc1ccccc1)CC2)C1CCOC1 (stereo not drawn) [Example 143, (2-(Benzyloxy)-4,6-dihydroxyphenyl)(8-(methyl(tetrahydrofuran-3-yl)amino)-3,4-dihydroisoquinolin-2(1H)-yl)methanone]	> 10 µM	> 10 µM
CC(=O)Nc1cccc2c1CN(C(=O)c1c(O)cc(O)cc1OCc1ccccc1)C2 [Example 94, N-(2-(2-(benzyloxy)-4,6-dihydroxybenzoyl)isoindolin-4-yl)acetamide]	1 to 10 µM	1 to 10 µM
O=C(c1c(O)cc(O)cc1OCc1ccccc1)N1Cc2cccc(CNC3CCOC3)c2C1 (stereo not drawn) [Example 80, (2-(Benzyloxy)-4,6-dihydroxyphenyl)(4-(((tetrahydrofuran-3-yl)amino)methyl)isoindolin-2-yl)methanone]	1 to 10 µM	1 to 10 µM
O=C(c1c(O)cc(O)cc1OCC1CCCCC1)N1CCc2cccc(N[C@H]3CCOC3)c2C1 [Example 140, (S)-(2-(Cyclohexylmethoxy)-4,6-dihydroxyphenyl)(8-((tetrahydrofuran-3-yl)amino)-3,4-dihydroisoquinolin-2(1H)-yl)methanone]	1 to 10 µM	< 1 µM

Now from value to molecule:

IC50 [1]	IC50 [2]	Compound
< 1 µM	1 to 10 µM	CN1C[C@H](Nc2cccc3c2CN(C(=O)c2c(O)cc(O)cc2OCc2ccccn2)CC3)CC1=O [Example 59, (R)-4-((2-(2,4-dihydroxy-6-(pyridin-2-ylmethoxy)benzoyl)-1,2,3,4-tetrahydroisoquinolin-8-yl)amino)-1-methylpyrrolidin-2-one]
< 1 µM	1 to 10 µM	CN1CCN(Cc2cc3c(c(N[C@@H]4CCOC4)c2)CN(C(=O)c2c(O)cc(O)cc2OCc2ccccc2)CC3)CC1 [Example 122, (R)-(2-(Benzyloxy)-4,6-dihydroxyphenyl)(6-((4-methylpiperazin-1-yl)methyl)-8-((tetrahydrofuran-3-yl)amino)-3,4-dihydroisoquinolin-2(1H)-yl)methanone]
< 1 µM	1 to 10 µM	O=C(c1c(O)cc(O)cc1OCc1ccccc1)N1CCc2cccc(NC3CCS(=O)(=O)C3)c2C1 (single isomer, unassigned) [Example 147b, (2-(Benzyloxy)-4,6-dihydroxyphenyl)(8-((1,1-dioxidotetrahydrothiophen-3-yl)amino)-3,4-dihydroisoquinolin-2(1H)-yl)methanone]
< 1 µM	< 1 µM	O=C(c1c(O)cc(O)cc1OCc1ccccc1)N1Cc2cccc(OCc3cncnc3)c2C1 [Example 89, (2-(Benzyloxy)-4,6-dihydroxyphenyl)(4-(pyrimidin-5-ylmethoxy)isoindolin-2-yl)methanone]
< 1 µM	1 to 10 µM	O=C(c1c(O)cc(O)cc1OCc1ccccc1)N1CCc2cccc(NC3CCS(=O)(=O)C3)c2C1 (stereo not drawn) [Example 147, (2-(Benzyloxy)-4,6-dihydroxyphenyl)(8-((1,1-dioxidotetrahydrothiophen-3-yl)amino)-3,4-dihydroisoquinolin-2(1H)-yl)methanone]
< 1 µM	> 10 µM	CN1CC(Nc2cccc3c2CN(C(=O)c2c(O)cc(O)cc2OCc2ccccc2)CC3)CC1=O (single isomer, unassigned) [Example 61, 4-((2-(2-(Benzyloxy)-4,6-dihydroxybenzoyl)-1,2,3,4-tetrahydroisoquinolin-8-yl)amino)-1-methylpyrrolidin-2-one]
< 1 µM	1 to 10 µM	O=C(c1c(O)cc(O)cc1OCc1ccccc1)N1Cc2ccc(CN3CCNCC3)cc2C1 [Example 3, (2-(Benzyloxy)-4,6-dihydroxyphenyl)(5-(piperazin-1-ylmethyl)isoindolin-2-yl)methanone]
< 1 µM	1 to 10 µM	O=C(c1c(O)cc(O)cc1OCc1ccccc1)N1CCc2cccc(NC3COC3)c2C1 [Example 41, (2-(Benzyloxy)-4,6-dihydroxyphenyl)(8-(oxetan-3-ylamino)-3,4-dihydroisoquinolin-2(1H)-yl)methanone]
